Test results: ChEMBL document CHEMBL3045597, “Antihyperglycemic, -glucosidase inhibitory and DPPH free radical scavenging activity of 5-bromosalicylaldehyde and schiff bases” (Med Chem Res, 2011)
Calls of active or inactive are those of the source. The calls are words filed in the database; no cut-off is given here.

Assays:
[1] = molecular target: Lysosomal alpha-glucosidase (Rattus norvegicus) (UniProt Q6P7A9); assay: Inhibition of rat intestinal alpha-glucosidase using p-nitrophenyl- alpha-D-glucopyranoside as substrate at 200 uM preincubated for 5 min before addition of substrate measured after 10 min
Chain of Lysosomal alpha-glucosidase (Rattus norvegicus) (Q6P7A9 whole entry): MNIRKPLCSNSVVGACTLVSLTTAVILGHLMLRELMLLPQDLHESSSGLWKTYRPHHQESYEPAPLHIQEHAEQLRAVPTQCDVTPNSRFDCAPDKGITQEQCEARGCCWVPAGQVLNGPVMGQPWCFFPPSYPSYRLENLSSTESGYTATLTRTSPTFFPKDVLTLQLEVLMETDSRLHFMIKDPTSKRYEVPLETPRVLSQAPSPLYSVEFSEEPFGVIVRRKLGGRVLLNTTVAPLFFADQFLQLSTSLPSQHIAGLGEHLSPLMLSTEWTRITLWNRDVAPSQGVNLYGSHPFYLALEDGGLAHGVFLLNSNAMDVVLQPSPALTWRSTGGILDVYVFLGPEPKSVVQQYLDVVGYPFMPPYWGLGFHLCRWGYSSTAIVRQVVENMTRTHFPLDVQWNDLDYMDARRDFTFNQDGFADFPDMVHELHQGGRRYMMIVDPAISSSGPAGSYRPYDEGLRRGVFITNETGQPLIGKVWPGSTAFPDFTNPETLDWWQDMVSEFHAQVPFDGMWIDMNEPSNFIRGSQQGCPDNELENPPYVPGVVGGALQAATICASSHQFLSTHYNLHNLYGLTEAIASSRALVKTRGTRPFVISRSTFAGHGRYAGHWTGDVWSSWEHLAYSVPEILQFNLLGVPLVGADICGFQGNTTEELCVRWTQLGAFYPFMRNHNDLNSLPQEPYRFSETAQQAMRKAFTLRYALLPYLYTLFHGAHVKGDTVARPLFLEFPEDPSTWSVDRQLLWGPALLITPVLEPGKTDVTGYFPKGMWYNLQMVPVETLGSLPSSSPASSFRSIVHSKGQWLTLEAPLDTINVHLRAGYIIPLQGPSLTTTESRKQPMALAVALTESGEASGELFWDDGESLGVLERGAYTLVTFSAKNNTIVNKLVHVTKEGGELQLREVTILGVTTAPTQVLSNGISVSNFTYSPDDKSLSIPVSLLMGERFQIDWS

[2] = tested on: Radical scavenging activity; assay: Antioxidant activity assessed as DPPH free radical scavenging activity at 250 uM after 20 min; type: functional
[3] = tested on: Radical scavenging activity; assay: Antioxidant activity assessed as DPPH free radical scavenging activity by measuring 50% radical scavenging concentration after 20 min; type: functional
Rattus norvegicus [4] = assay: Antihyperglycemic activity in starch fed Rattus norvegicus Wistar (rat) assessed as reduction of AUC of plasma glucose level at 50 mg/kg administered 15 min before starch feeding; type: functional, organism-based; parameters: dose 50 mg/kg
Rattus norvegicus [5] = assay: Antihyperglycemic activity in starch fed Rattus norvegicus Wistar (rat) assessed as reduction of plasma glucose level at 50 mg/kg administered 15 min before starch feeding measured up to 60 min; type: functional, organism-based; parameters: dose 50 mg/kg
[6] = molecular target: Lysosomal alpha-glucosidase (Rattus norvegicus) (UniProt Q6P7A9); assay: Inhibition of rat intestinal alpha-glucosidase using p-nitrophenyl- alpha-D-glucopyranoside as substrate at 300 uM preincubated for 5 min before addition of substrate measured after 10 min

| SMILES | inhibition [1] | Activity [2] | further results |
| --- | --- | --- | --- |
| COc1ccc(/N=C/c2ccccc2O)cc1 | 11.4% |  |  |
| COc1ccc(/N=C/c2cc(Br)ccc2O)cc1 | Active | 48.7% |  |
| Oc1ccccc1/C=N\c1ccccc1/N=C/c1ccccc1O | 57.9% | 75.3% | Activity [3]: 115 µM |
| O=Cc1cc(Br)ccc1O | 85.8% |  | Activity (Rattus norvegicus [4]): Active; Activity (Rattus norvegicus [5]): Active; inhibition [6]: 85.8% |
| Oc1ccccc1/C=N/c1ccccc1 | Active | 9.29% |  |
| O=[N+]([O-])c1ccc(/N=C/c2cc(Br)ccc2O)cc1 | Active | inactive |  |
| Oc1ccccc1/C=N/c1ccc(Cl)cc1 | 6.63% | inactive |  |
| C/C(=N\CC/N=C(\C)c1ccccc1)c1ccccc1 | Active |  |  |
| Oc1ccccc1/C=N/CC/N=C/c1ccccc1O | 29.1% | inactive |  |
| Oc1ccc(Br)cc1/C=N/c1ccc(Cl)cc1 | inactive | 13.5% |  |
| O=[N+]([O-])c1ccc(/N=C/c2ccccc2O)cc1 | 95.6% | inactive |  |
| C/C(=N\NC(=O)c1ccccc1)c1ccc(C)cc1 | 31.6% |  |  |
| Oc1ccc(Br)cc1/C=N/CC/N=C/c1cc(Br)ccc1O | 14.4% | inactive |  |
| Oc1ccc(Br)cc1/C=N/c1ccccc1 | Active | 9.27% |  |
